In ChEMBL document CHEMBL4507274 (2021):

How the values were obtained:
[1] = system: Tyrosine-protein kinase ABL1 (Homo sapiens), P00519 [F317I]; conditions: Compound concentration 100.0 nM
[2] = system: Tyrosine-protein kinase ABL1 (Homo sapiens), P00519 [H396P]; conditions: Compound concentration 100.0 nM
[3] = molecular target: Atypical kinase COQ8B, mitochondrial (Homo sapiens) (UniProt Q96D53); conditions: Compound concentration 100.0 nM
[4] = system: Serine/threonine-protein kinase B-raf (Homo sapiens), P15056 [V600E]; conditions: Compound concentration 100.0 nM
[5] = molecular target: T1, Calcium/calmodulin-dependent protein kinase type IV (Homo sapiens) (UniProt Q16566); conditions: Compound concentration 100.0 nM
T1 sequence (whole entry): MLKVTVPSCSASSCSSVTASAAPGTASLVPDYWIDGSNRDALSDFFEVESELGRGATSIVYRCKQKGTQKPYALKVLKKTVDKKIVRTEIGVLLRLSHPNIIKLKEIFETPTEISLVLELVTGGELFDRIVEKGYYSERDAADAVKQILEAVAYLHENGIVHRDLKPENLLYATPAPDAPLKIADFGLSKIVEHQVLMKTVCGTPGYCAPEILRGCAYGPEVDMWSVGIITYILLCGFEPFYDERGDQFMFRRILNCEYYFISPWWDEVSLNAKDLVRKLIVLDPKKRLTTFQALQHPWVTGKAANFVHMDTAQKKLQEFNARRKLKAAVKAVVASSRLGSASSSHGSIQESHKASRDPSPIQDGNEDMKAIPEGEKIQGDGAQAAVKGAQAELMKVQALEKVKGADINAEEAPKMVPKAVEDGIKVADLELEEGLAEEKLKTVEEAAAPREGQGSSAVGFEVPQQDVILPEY

[6] = molecular target: Ephrin type-A receptor 3 (Homo sapiens) (UniProt P29320); conditions: Compound concentration 100.0 nM
[7] = molecular target: Ephrin type-A receptor 4 (Homo sapiens) (UniProt P54764); conditions: Compound concentration 100.0 nM
[8] = molecular target: Fibroblast growth factor receptor 2 (Homo sapiens) (UniProt P21802); conditions: Compound concentration 100.0 nM
[9] = molecular target: Tyrosine-protein kinase JAK1 (Homo sapiens) (UniProt P23458); conditions: Compound concentration 100.0 nM
[10] = molecular target: Leukocyte tyrosine kinase receptor (Homo sapiens) (UniProt P29376); conditions: Compound concentration 100.0 nM
[11] = molecular target: Myosin light chain kinase family member 4 (Homo sapiens) (UniProt Q86YV6); conditions: Compound concentration 100.0 nM
[12] = molecular target: Serine/threonine-protein kinase PAK 6 (Homo sapiens) (UniProt Q9NQU5); conditions: Compound concentration 100.0 nM
[13] = system: Phosphatidylinositol 4,5-bisphosphate 3-kinase catalytic subunit alpha isoform (Homo sapiens), P42336 [E545K]; conditions: Compound concentration 100.0 nM
[14] = molecular target: T2, Protein kinase C iota type (Homo sapiens) (UniProt P41743); conditions: Compound concentration 100.0 nM
T2 sequence (whole entry): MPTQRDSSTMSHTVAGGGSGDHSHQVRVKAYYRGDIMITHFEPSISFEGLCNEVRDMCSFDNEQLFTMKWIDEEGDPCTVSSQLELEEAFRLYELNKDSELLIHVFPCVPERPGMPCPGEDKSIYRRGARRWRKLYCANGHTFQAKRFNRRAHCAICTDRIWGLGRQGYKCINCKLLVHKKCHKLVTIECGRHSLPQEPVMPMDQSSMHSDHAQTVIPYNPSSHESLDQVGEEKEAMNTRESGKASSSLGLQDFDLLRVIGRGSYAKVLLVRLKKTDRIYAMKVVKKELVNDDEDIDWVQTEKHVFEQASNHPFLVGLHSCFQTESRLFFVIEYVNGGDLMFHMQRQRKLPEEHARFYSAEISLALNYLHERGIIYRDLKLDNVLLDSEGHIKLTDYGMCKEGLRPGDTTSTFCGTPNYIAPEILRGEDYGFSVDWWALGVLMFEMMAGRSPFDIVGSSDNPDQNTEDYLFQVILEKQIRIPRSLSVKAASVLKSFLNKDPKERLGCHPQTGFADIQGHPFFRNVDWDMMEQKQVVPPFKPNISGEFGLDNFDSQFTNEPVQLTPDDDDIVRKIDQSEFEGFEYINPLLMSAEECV

[15] = molecular target: cGMP-dependent protein kinase 2 (Homo sapiens) (UniProt Q13237); conditions: Compound concentration 100.0 nM
[16] = molecular target: Proto-oncogene tyrosine-protein kinase receptor Ret (Homo sapiens) (UniProt P07949); conditions: Compound concentration 100.0 nM
[17] = molecular target: Ribosomal protein S6 kinase alpha-5 (Homo sapiens) (UniProt O75582); conditions: Compound concentration 100.0 nM
[18] = molecular target: Ribosomal protein S6 kinase alpha-2 (Homo sapiens) (UniProt Q15349); conditions: Compound concentration 100.0 nM
[19] = molecular target: Dual specificity testis-specific protein kinase 1 (Homo sapiens) (UniProt Q15569); conditions: Compound concentration 100.0 nM
[20] = molecular target: 5-hydroxytryptamine receptor 3A (Homo sapiens) (UniProt P46098); conditions: Compound concentration 10.0 uM
[21] = molecular target: Tyrosine-protein kinase Fyn (Homo sapiens) (UniProt P06241); assay: Fyn (h) Upstate kinase activity assay; conditions: Compound concentration 10.0 uM
[22] = molecular target: Insulin-like growth factor 1 receptor (Homo sapiens) (UniProt P08069); assay: IGF-1R (h) Upstate kinase activity assay; conditions: Compound concentration 10.0 uM
[23] = molecular target: Dual specificity mitogen-activated protein kinase kinase 1 (Homo sapiens) (UniProt Q02750); assay: MEKI (h) Upstate kinase activity assay; conditions: Compound concentration 10.0 uM
[24] = molecular target: Ribosomal protein S6 kinase beta-1 (Homo sapiens) (UniProt P23443); assay: […] (h) Upstate kinase activity assay; conditions: Compound concentration 10.0 uM
[25] = molecular target: T3, MAP kinase-activated protein kinase 5 (Homo sapiens) (UniProt Q8IW41); assay: PRAK (h) Upstate kinase activity assay; conditions: Compound concentration 10.0 uM
T3 sequence (whole entry): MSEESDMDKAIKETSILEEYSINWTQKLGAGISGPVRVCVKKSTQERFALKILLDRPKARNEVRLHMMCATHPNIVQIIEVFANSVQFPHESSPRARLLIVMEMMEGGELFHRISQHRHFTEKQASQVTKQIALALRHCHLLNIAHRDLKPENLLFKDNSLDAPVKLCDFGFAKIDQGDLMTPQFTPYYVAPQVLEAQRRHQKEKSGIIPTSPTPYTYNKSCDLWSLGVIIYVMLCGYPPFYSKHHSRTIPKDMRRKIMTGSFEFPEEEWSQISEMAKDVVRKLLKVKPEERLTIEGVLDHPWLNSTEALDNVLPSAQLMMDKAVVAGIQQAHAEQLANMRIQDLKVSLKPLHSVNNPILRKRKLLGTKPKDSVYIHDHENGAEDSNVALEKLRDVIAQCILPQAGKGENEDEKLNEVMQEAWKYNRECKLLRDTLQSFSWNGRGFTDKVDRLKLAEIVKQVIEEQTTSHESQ

Chain of Myosin light chain kinase family member 4 (Homo sapiens) (Q86YV6 whole entry): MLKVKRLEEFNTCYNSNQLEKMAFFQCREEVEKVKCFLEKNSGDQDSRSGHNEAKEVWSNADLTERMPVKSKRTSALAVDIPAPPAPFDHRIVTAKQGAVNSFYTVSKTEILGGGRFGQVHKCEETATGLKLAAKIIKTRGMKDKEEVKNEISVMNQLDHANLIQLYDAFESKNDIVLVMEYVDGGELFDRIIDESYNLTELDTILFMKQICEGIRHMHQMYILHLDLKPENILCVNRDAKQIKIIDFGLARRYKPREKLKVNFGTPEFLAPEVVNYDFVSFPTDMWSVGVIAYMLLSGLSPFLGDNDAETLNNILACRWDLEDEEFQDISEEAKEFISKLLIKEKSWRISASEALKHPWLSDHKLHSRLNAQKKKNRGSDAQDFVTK
Chain of 5-hydroxytryptamine receptor 3A (Homo sapiens) (P46098 whole entry): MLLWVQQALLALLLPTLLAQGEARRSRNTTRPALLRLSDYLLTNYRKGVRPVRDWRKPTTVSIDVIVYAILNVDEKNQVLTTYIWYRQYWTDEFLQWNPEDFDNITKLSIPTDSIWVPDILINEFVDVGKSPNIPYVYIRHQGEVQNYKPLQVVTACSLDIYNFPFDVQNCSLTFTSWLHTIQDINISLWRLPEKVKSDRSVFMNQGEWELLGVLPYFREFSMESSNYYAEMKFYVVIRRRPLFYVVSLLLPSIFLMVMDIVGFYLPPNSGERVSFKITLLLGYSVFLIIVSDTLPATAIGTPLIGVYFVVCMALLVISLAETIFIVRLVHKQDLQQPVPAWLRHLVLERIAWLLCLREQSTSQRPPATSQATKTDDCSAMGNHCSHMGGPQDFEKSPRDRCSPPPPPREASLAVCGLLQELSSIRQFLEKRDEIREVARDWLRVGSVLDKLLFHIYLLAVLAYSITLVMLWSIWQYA
Chain of cGMP-dependent protein kinase 2 (Homo sapiens) (Q13237 whole entry): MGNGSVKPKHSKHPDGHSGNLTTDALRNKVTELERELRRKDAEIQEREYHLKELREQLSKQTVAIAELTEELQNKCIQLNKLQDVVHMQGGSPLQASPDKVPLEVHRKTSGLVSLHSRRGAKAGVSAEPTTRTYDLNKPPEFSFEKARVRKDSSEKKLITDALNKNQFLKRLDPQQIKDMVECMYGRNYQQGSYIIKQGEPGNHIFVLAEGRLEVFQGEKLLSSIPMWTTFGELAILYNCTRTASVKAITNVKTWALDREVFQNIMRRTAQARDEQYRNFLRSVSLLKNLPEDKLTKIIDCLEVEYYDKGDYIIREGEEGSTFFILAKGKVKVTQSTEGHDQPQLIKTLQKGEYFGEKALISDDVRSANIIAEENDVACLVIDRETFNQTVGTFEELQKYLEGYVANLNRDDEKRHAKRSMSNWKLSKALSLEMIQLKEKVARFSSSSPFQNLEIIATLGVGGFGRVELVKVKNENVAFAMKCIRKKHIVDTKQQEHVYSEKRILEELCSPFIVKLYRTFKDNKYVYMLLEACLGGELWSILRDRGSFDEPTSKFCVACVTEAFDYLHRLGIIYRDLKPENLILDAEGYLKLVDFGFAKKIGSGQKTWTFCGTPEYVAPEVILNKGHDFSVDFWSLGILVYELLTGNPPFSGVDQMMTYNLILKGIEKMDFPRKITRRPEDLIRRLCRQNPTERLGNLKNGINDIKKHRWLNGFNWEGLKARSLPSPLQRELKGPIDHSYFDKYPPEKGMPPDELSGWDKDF
Chain of Tyrosine-protein kinase JAK1 (Homo sapiens) (P23458 whole entry): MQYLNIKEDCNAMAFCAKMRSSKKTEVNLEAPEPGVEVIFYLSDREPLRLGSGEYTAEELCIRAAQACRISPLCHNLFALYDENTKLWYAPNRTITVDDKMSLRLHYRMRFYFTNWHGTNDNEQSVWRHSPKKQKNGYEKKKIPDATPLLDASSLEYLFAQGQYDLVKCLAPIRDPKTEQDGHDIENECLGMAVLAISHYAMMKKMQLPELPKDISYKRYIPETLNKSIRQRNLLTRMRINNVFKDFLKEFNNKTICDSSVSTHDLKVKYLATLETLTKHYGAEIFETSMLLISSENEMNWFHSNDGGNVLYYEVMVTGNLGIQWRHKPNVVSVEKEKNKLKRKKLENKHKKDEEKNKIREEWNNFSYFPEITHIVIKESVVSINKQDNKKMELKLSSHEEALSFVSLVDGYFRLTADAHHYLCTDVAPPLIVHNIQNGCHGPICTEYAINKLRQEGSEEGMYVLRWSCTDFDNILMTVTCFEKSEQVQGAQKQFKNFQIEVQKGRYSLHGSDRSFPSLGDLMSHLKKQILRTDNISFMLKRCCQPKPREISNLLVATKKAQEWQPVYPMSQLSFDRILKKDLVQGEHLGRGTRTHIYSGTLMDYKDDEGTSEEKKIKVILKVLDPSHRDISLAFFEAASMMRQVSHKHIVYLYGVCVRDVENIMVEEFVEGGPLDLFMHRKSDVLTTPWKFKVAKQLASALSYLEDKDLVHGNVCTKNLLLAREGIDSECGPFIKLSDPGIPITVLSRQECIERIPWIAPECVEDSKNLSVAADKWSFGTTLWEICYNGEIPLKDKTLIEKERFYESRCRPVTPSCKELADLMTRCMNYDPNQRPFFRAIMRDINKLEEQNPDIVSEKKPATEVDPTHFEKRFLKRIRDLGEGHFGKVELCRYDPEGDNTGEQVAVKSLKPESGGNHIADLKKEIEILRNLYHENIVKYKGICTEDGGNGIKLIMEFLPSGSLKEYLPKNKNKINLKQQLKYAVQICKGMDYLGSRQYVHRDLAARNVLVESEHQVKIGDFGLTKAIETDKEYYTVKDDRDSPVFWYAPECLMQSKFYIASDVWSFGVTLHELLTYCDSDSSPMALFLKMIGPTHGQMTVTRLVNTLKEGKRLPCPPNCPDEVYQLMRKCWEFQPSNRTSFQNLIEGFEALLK
Chain of Fibroblast growth factor receptor 2 (Homo sapiens) (P21802 22-821 limits assumed): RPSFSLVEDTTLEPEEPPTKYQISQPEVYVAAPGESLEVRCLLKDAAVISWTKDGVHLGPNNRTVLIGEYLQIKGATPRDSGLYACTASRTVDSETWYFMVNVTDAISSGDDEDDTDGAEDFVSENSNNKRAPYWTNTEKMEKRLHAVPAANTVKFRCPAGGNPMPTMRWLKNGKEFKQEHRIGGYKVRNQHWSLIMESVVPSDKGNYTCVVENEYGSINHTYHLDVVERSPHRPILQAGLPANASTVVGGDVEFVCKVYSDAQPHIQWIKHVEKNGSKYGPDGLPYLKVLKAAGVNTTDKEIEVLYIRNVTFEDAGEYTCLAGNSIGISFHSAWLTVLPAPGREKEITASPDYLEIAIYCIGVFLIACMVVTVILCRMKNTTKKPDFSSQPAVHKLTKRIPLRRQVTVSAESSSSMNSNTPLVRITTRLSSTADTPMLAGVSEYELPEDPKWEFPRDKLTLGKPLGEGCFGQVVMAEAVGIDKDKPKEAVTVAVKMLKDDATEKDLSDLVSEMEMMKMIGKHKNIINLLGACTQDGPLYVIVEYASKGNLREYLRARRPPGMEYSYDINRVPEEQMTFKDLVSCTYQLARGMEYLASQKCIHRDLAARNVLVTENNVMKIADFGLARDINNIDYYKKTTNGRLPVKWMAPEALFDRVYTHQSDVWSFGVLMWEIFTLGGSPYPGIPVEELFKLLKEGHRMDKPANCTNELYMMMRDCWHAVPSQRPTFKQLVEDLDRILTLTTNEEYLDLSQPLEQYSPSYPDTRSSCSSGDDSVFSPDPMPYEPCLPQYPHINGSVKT
Chain of Proto-oncogene tyrosine-protein kinase receptor Ret (Homo sapiens) (P07949 whole entry): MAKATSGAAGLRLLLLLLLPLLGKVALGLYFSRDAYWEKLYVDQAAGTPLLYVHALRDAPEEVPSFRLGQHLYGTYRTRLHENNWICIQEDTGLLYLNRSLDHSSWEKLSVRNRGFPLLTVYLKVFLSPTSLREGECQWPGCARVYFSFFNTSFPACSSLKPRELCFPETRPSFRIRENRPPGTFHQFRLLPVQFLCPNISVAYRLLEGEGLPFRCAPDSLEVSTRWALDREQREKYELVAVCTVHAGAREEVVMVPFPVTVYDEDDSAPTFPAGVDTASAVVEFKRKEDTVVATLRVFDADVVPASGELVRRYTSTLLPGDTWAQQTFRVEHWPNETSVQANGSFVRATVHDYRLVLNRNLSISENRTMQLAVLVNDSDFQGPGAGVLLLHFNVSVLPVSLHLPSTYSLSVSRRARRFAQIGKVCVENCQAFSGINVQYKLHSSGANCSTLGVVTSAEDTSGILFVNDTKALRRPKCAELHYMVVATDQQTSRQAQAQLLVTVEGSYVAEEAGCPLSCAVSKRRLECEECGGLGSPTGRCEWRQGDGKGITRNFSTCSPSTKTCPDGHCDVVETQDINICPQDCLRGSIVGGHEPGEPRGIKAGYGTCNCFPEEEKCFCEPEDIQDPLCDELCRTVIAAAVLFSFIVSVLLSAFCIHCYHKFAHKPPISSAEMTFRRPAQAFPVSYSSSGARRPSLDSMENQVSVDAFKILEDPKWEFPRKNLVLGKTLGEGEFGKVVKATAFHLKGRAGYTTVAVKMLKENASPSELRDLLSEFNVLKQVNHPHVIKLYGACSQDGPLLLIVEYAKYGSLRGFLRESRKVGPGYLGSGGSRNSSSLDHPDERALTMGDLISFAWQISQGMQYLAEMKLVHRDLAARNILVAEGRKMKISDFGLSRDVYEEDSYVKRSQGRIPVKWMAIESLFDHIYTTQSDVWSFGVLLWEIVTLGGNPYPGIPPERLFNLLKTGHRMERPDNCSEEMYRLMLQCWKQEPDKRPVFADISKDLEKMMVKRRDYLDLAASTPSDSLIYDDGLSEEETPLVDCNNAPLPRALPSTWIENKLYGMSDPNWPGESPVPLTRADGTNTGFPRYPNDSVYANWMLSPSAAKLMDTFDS

Cn1cc(Cl)c2c(Oc3c(F)cc(Nc4cc(Cl)nc(N)n4)cc3F)ccnc21 [BAY-4900]
inactive: residual activity [1] 93% | residual activity [2] 84% | residual activity [3] 89% | residual activity [4] 100% | residual activity [5] 96% | residual activity [6] 83% | residual activity [7] 100% | residual activity [8] 98% | residual activity [9] 83% | residual activity [10] 87% | residual activity [11] 91% | residual activity [12] 100% | residual activity [13] 78% | residual activity [14] 100% | residual activity [15] 83% | residual activity [16] 99% | residual activity [17] 100% | residual activity [18] 100% | residual activity [19] 100% | inhibition [20] 4.46%

Cc1c[nH]c2nccc(Oc3c(F)cc(Nc4cc(Cl)nc(N)n4)cc3F)c12 [BAY-549]
inactive: inhibition [21] 14% | inhibition [22] 41% | inhibition [23] 9% | inhibition [24] 84% | inhibition [25] 36% | residual activity [1] 100% | residual activity [2] 82% | residual activity [3] 88% | residual activity [4] 98% | residual activity [5] 100% | residual activity [6] 97% | residual activity [7] 100% | residual activity [8] 100% | residual activity [9] 84% | residual activity [10] 99% | residual activity [11] 100% | residual activity [12] 82% | residual activity [13] 82% | residual activity [14] 100% | residual activity [15] 90% | residual activity [16] 97% | residual activity [17] 100% | residual activity [18] 100% | residual activity [19] 100% | inhibition [20] 0.5%
